Data set [1] concerns skin biopsies from active disease, untreated, prurigo nodularis patients. Briefly: Ruxolitinib-mediated pharmacological inhibition of PN pathophysiology: proteins secreted by cultured PN skin explants, Procarta Multiplex Immunoassay. Type of data set: cell-based, human. Particulars: for percent inhibition of IFN-gamma / percent inhibition of IL-2 / percent inhibition of IL-8 (CXCL8) / percent inhibition of IL-10 / percent inhibition of IL-17 alpha (CTLA-8) / percent inhibition of IP-10 (CXCL10): culture supernatant vs DMSO. The protocol: Full-thickness cutaneous skin biopsies were obtained from active disease, untreated, prurigo nodularis patients. Single 4 mm-punch biopsies were obtained from the same lesion for each patient and longitudinally divided into two pieces (see FIG. 1). FIG. 1 depicts a representation of skin punch biopsies used for the JAK1/JAK2 mediated pharmacological inhibition of PN pathophysiology. Biopsies were cultured for 8 days in KBM media+CaCl2 and refreshed every 2-3 days. Ruxolitinib phosphate or DMSO (control) was added to the cell culture media. Conditioned supernatants collected during/prior to media refresh were stored at −80° C. for subsequent analysis. On day 8, cultures were terminated and tissue RNA isolated for subsequent analysis.
Collected supernatants were analyzed to quantify chemokines, cytokines, and growth factors secreted by skin explants in culture and which are involved in inflammation. A total of 51 proteins were detected and quantified in culture supernatants by Procarta Multiplex Immunoassay (Thermo Fisher, Waltham, MA). Supernatants and standards were incubated at 4° C. overnight. Assay plates were read on a Luminex 200 Instrument (Luminex Corporation, Austin, TX). The concentration was extrapolated from the antigen standard curve of each analyte. The percent inhibition determined for each analyte as the difference in protein concentration in cultures with DMSO (CD) versus those with ruxolitinib (CJ), (CD−CJ)/CD (see FIG. 2).

Data set [2] can be described thus: Solubility of ruxolitinib free base or 1:1 phosphate salt in potential solvents (HPLC). The data set is classed as physicochemical. The settings on record: room temperature, 24 hours. As to the method: First, in order to determine the solubility of ruxolitinib (free base) or its 1:1 phosphate salt, approximately 5 mL of a potential solvent was added to approximately 50 mg of the API or its salt at room temperature. The mixtures were suspended and rotated on a wheel. If the mixtures became clear solutions, more solid material was added. The suspensions were then suspended over 24 hours. The samples were filtered through 0.2 micron filters. The liquid portions were collected and diluted with 50/50 water methanol/water. The concentrations of the diluted samples were analyzed by HPLC. When the free base or salt was fairly insoluble, the results are approximate only.

In another data set the test system is PN skin. The settings on record: PN skin cultured with nemolizumab; cited from earlier work.
A further data set deals with PN patients. The settings on record: inhibition of IL-31; cited from earlier work.

`Cc1n[nH]c(C)c1-c1cnn(C2(CC#N)CN(c3cc(F)c(C(=O)N[C@@H](C)C(F)(F)F)cc3F)C2)c1` [4-[3-(cyanomethyl)-3-(3′,5′-dimethyl-1H,1′H-4,4′-bipyrazol-1-yl)azetidin-1-yl]-2,5-difluoro-N-[(1S)-2,2,2-trifluoro-1-methylethyl]benzamide]: in data set [1] (48 hours, same assays), the “percent inhibition of IL-5” value was found to be 20.25% and the “percent inhibition of IL-22” value came to 11.16%.
What is called Solubility is how much of the substance goes into solution per volume. Regarding `N#CC[C@H](C1CCCC1)n1cc(-c2ncnc3[nH]ccc23)cn1` [ruxolitinib], the “percent inhibition of IFN-gamma” value in data set [1] (48 hr) is 5.0%; in data set [1] (96 hr), 11.6%. Further, the figures for the “percent inhibition of IL-2” value in data set [1] (48 hr) and in data set [1] (96 hr) were 17.8% and 16.6%, respectively. Moreover, the “percent inhibition of IL-8 (CXCL8)” value is reported as 13.7% in data set [1] (48 hr) and “** (no measureable inhibition)” in data set [1] (96 hr). Moreover, the “percent inhibition of IL-10” value in data set [1] (48 hr) amounted to 36.2%; in data set [1] (96 hr), 39.9%. The “percent inhibition of IL-17 alpha (CTLA-8)” value in data set [1] (48 hr) is recorded as 63.9%; in data set [1] (96 hr), 57.6%. The “percent inhibition of IP-10 (CXCL10)” value in data set [1] (48 hr) is recorded as 9.7%; in data set [1] (96 hr), 60.3%. The Solubility in data set [2] (C12-15 alcohol benzoate, approximate, listed as Free Base) came out at 150 µg/mL; in data set [2] (Caprylic triglyceride, approximate, listed as Free Base) it was 150 µg/mL; in data set [2] (Dimethicone, approximate, listed as Free Base), 150 µg/mL; in data set [2] (Isopropanol, listed as Free Base), 450 µg/mL; in data set [2] (Isopropyl myristate, approximate), 80 µg/mL; in data set [2] (Isosorbide dimethyl ether, listed as Free Base), 300 µg/mL. Also, the Solubility in data set [2] (Mineral oil, approximate) was 80 µg/mL; in data set [2] (Olelyl alcohol, approximate, listed as Free Base), 80 µg/mL; in data set [2] (Propylene glycol, listed as Free Base) it was 18200 µg/mL; in data set [2] (Water/glycerin/trolamine (40/40/20)) it was 13600 µg/mL.

B1: nemolizumab: an IL-31 inhibitor; anti-IL-31 antibody (antibody, chains of the INN, looked up)
heavy: QVQLVQSGAEVKKPGASVKVSCKASGYTFTGYIMNWVRQAPGQGLEWMGLINPYNGGTDYNPQFQDRVTITADKSTSTAYMELSSLRSEDTAVYYCARDGYDDGPYTLETWGQGTLVTVSSASTKGPSVFPLAPSSKSTSGGTAALGCLVKDYFPEPVTVSWNSGALTSGVHTFPAVLQSSGLYSLSSVVTVPSSNFGTQTYTCNVDHKPSNTKVDKTVERKSCVECPPCPAPPVAGPSVFLFPPKPKDTLMISRTPEVTCVVVDVSQEDPEVQFNWYVDGVEVHNAKTKPREEQFNSTFRVVSVLTVVHQDWLNGKEYKCKVSNKGLPAPIEKTISKTKGQPREPQVYTLPPSQEEMTKNQVSLTCLVKGFYPSDIAVEWESNGQPENNYKTTPPMLDSDGSFFLYSKLTVDKSRWQEGNVFSCSVMHEALHNHYTQKSLSLSP
light: DIQMTQSPSSLSASVGDRVTITCQASEDIYSFVAWYQQKPGKAPKLLIYNAQTEAQGVPSRFSGSGSGTDFTLTISSLQPEDFATYYCQHHYDSPLTFGGGTKVEIKRTVAAPSVFIFPPSDEQLKSGTASVVCLLNNFYPREAKVQWKVDNALQSGNSQESVTEQDSKDSTYSLSSTLTLSKADYEKHKVYACEVTHQGLSSPVTKSFNRGEC
In the case of B1, in the data set with PN skin, the “IL-17 levels in lesional skin” value is given as “reduction in IL-17 levels”. Further, the “pruritus and skin lesions in PN patients” value with PN patients is “improvement in pruritus and skin lesions”.

Values taken from patent publication US20250099472A1, “RUXOLITINIB FOR THE TREATMENT OF PRURIGO NODULARIS” (INCYTE CORPORATION, priority 2021, published 2025).
